Test results as given in PubChem BioAssay AID256 (DTP/NCI, 2004).
Where “and” joins values, the source holds several entries; their conditions need not be identical. Equal values may be shown once. Toxic doses and inconclusive results are not listed. The calls were made as follows: active = survival T/C of 150% or more; inactive = T/C below 125% in these data.

Tested on: CD2F1 mice, L1210 leukemia ip, survival T/C
Assay: NCI In Vivo Anticancer Drug Screen. Data for tumor model L1210 Leukemia (intraperitoneal) in CD2F1 (CDF1) mice
Conditions: higher = longer survival
Outline: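 Read-out first: treated-group measurement over vehicle-control measurement, expressed as a ratio. Animals bore a transplanted tumor line and were dosed with compound or vehicle.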

[1] = endpoint: mean survival time, dose: 25.0 mg/kg/injection, schedule: Q01DX009 (ip), vehicle: saline with Tween-80
[2] = endpoint: mean survival time, dose: 50.0 mg/kg/injection, schedule: Q01DX009 (ip), vehicle: saline with Tween-80
[3] = endpoint: mean survival time, dose: 100.0 mg/kg/injection, schedule: Q01DX001 (ip), vehicle: saline with Tween-80
[4] = endpoint: mean survival time, dose: 100.0 mg/kg/injection, schedule: Q04DX003 (ip), vehicle: saline with Tween-80
[5] = endpoint: mean survival time, dose: 200.0 mg/kg/injection, schedule: Q04DX003 (ip), vehicle: saline with Tween-80
[6] = endpoint: mean survival time, dose: 100.0 mg/kg/injection, schedule: Q01DX009 (ip), vehicle: saline with Tween-80
[7] = endpoint: mean survival time, dose: 200.0 mg/kg/injection, schedule: Q01DX009 (ip), vehicle: saline with Tween-80
[8] = endpoint: mean survival time, dose: 400.0 mg/kg/injection, schedule: Q01DX009 (ip), vehicle: saline with Tween-80
[9] = endpoint: mean survival time, dose: 400.0 mg/kg/injection, schedule: Q04DX003 (ip), vehicle: saline with Tween-80
[10] = endpoint: mean survival time, dose: 25.0 mg/kg/injection, schedule: Q04DX002 (ip), vehicle: saline with Tween-80
[11] = endpoint: mean survival time, dose: 50.0 mg/kg/injection, schedule: Q04DX002 (ip), vehicle: saline with Tween-80
[12] = endpoint: mean survival time, dose: 200.0 mg/kg/injection, schedule: Q01DX001 (ip), vehicle: saline with Tween-80
[13] = endpoint: mean survival time, dose: 400.0 mg/kg/injection, schedule: Q01DX001 (ip), vehicle: saline with Tween-80

Measured: T/C

CC(C)(C)OC(=O)NC(CSC(c1ccccc1)(c1ccccc1)c1ccccc1)C(=O)NCC(=O)O (configuration not stated)
inactive: endpoint: mean survival time, dose: 75.0 mg/kg/injection, schedule: Q01DX001 (ip), vehicle: saline 96 % of control

O=[N+]([O-])c1ccc(S(=O)(=O)C/C=C/CCl)c([N+](=O)[O-])c1
inactive: [1] 102 % of control | [2] 95 % of control | [3] 94 % of control

S=C(S)NCCNC(=S)S
inactive: endpoint: mean survival time, dose: 100.0 mg/kg/injection, schedule: Q01DX009 (ip), vehicle: saline 102 % of control | endpoint: mean survival time, dose: 200.0 mg/kg/injection, schedule: Q01DX009 (ip), vehicle: saline 100 % of control | endpoint: mean survival time, dose: 400.0 mg/kg/injection, schedule: Q01DX009 (ip), vehicle: saline 90 % of control

COC(=O)C(=O)c1ccccc1
inactive: endpoint: mean survival time, dose: 100.0 mg/kg/injection, schedule: Q04DX003 (ip), vehicle: saline 96 % of control | endpoint: mean survival time, dose: 200.0 mg/kg/injection, schedule: Q04DX003 (ip), vehicle: saline 102 % of control | endpoint: mean survival time, dose: 400.0 mg/kg/injection, schedule: Q04DX003 (ip), vehicle: saline 103 % of control

ClC1(Cl)C2CCCCC21 (configuration not stated)
inactive: endpoint: mean survival time, dose: 50.0 mg/kg/injection, schedule: Q01DX009 (ip), vehicle: saline sonified 98 % of control | endpoint: mean survival time, dose: 100.0 mg/kg/injection, schedule: Q01DX009 (ip), vehicle: saline sonified 98 % of control | [4] 98 % of control | endpoint: mean survival time, dose: 200.0 mg/kg/injection, schedule: Q01DX009 (ip), vehicle: saline sonified 97 % of control | [5] 97 % of control

CC1OCOC(C)C1C (configuration not stated)
inactive: endpoint: mean survival time, dose: 50.0 mg/kg/injection, schedule: Q01DX005 (ip), vehicle: saline 108 % of control | [2] 91 % of control | endpoint: mean survival time, dose: 50.0 mg/kg/injection, schedule: Q04DX002 (ip), vehicle: saline + alcohol 103 % of control | endpoint: mean survival time, dose: 100.0 mg/kg/injection, schedule: Q01DX005 (ip), vehicle: saline 108 % of control | [6] 91 % of control | endpoint: mean survival time, dose: 100.0 mg/kg/injection, schedule: Q04DX002 (ip), vehicle: saline + alcohol 95 % of control | endpoint: mean survival time, dose: 200.0 mg/kg/injection, schedule: Q01DX005 (ip), vehicle: saline 108 % of control | [7] 91 % of control | endpoint: mean survival time, dose: 200.0 mg/kg/injection, schedule: Q04DX002 (ip), vehicle: saline + alcohol 88 % of control | endpoint: mean survival time, dose: 400.0 mg/kg/injection, schedule: Q01DX005 (ip), vehicle: saline 102 % of control | [8] 98 % of control | endpoint: mean survival time, dose: 400.0 mg/kg/injection, schedule: Q04DX002 (ip), vehicle: saline + alcohol 95 % of control

O=C(O)CNC(=O)COc1ccccc1
inactive: [6] 101 % of control | [4] 101 % of control | [7] 88 % of control | [5] 93 % of control | [8] 90 % of control | [9] 101 % of control

CSc1ccc(OC(=O)Nc2ccc(C)cc2C)cc1C
inactive: endpoint: mean survival time, dose: 12.5 mg/kg/injection, schedule: Q01DX009 (ip), vehicle: saline with Tween-80 95 % of control | [1] 91 % of control | [2] 87 % of control and 89 % of control | [7] 93 % of control

Cc1ccc(CCl)cc1
inactive: [2] 115 % of control | [6] 92 % of control

CCCCCCCCCCCCC(=O)OC
inactive: [6] 107 % of control | [7] 106 % of control | [8] 105 % of control

CCOC(=O)/C(Cc1cc(Cl)nnc1Cl)=N\N
inactive: endpoint: mean survival time, dose: 12.5 mg/kg/injection, schedule: Q04DX002 (ip), vehicle: saline with Tween-80 113 % of control | [10] 98 % of control | [11] 87 % of control

O=C1c2ccccc2C(=O)N1OCCCN1C(=O)c2ccccc2S1(=O)=O
inactive: endpoint: mean survival time, dose: 100.0 mg/kg/injection, schedule: Q01DX001 (ip), vehicle: saline 96 % of control | endpoint: mean survival time, dose: 200.0 mg/kg/injection, schedule: Q01DX001 (ip), vehicle: saline 100 % of control | endpoint: mean survival time, dose: 400.0 mg/kg/injection, schedule: Q01DX001 (ip), vehicle: saline 100 % of control

N/N=C1/C(=O)c2cccc3cccc1c23
inactive: [4] 100 % of control | [5] 102 % of control | [9] 92 % of control

[N-]=[N+]=NCC(=O)N1c2ccccc2Sc2ccccc21
inactive: endpoint: mean survival time, dose: 12.5 mg/kg/injection, schedule: Q01DX009 (ip), vehicle: other 95 % of control | endpoint: mean survival time, dose: 25.0 mg/kg/injection, schedule: Q01DX009 (ip), vehicle: other 103 % of control | endpoint: mean survival time, dose: 50.0 mg/kg/injection, schedule: Q01DX009 (ip), vehicle: other 98 % of control | endpoint: mean survival time, dose: 100.0 mg/kg/injection, schedule: Q01DX009 (ip), vehicle: other 101 % of control | endpoint: mean survival time, dose: 200.0 mg/kg/injection, schedule: Q01DX009 (ip), vehicle: other 95 % of control

O=[N+]([O-])c1ccc(C(O)C(O)c2ccccc2)cc1 (configuration not stated)
inactive: [3] 96 % of control | [12] 92 % of control | [13] 95 % of control

BrC1=C(c2ccccc2)SC(Br)=C(c2ccccc2)S1
inactive: [3] 94 % of control | [12] 87 % of control | [13] 91 % of control

CN(C1=CC(=O)c2ccccc2C1=O)C1CCCCC1
inactive: [4] 93 % of control | [5] 93 % of control | [9] 104 % of control

CCOC(=O)C1(C(=O)OCC)C(C)CC(OCC)N1C(=O)c1cc2c(cc1[N+](=O)[O-])OCO2 (configuration not stated)
inactive: endpoint: mean survival time, dose: 100.0 mg/kg/injection, schedule: Q01DX001 (ip), vehicle: Klucel (hydroxypropylcellulose) (HPC) 100 % of control | endpoint: mean survival time, dose: 200.0 mg/kg/injection, schedule: Q01DX001 (ip), vehicle: Klucel (hydroxypropylcellulose) (HPC) 100 % of control | endpoint: mean survival time, dose: 400.0 mg/kg/injection, schedule: Q01DX001 (ip), vehicle: Klucel (hydroxypropylcellulose) (HPC) 100 % of control

N#CC(C#N)C(O)c1c[nH]c2ccccc12 (configuration not stated)
inactive: [3] 102 % of control | [12] 96 % of control | [13] 94 % of control

N#[N+]c1cnc([O-])[nH]c1=O
inactive: endpoint: mean survival time, dose: 0.5 mg/kg/injection, schedule: Q07DX Z (ip), vehicle: saline 106 % of control | endpoint: mean survival time, dose: 1.0 mg/kg/injection, schedule: Q07DX Z (ip), vehicle: saline 112 % of control | endpoint: mean survival time, dose: 2.0 mg/kg/injection, schedule: Q03DX Z (ip), vehicle: saline 112 % of control | endpoint: mean survival time, dose: 2.0 mg/kg/injection, schedule: Q07DX Z (ip), vehicle: saline 118 % of control | endpoint: mean survival time, dose: 4.0 mg/kg/injection, schedule: Q07DX Z (ip), vehicle: saline 116 % of control | endpoint: mean survival time, dose: 8.0 mg/kg/injection, schedule: Q01DX001 (ip), vehicle: saline 112 % of control | endpoint: mean survival time, dose: 16.0 mg/kg/injection, schedule: Q01DX001 (ip), vehicle: saline 112 % of control | endpoint: mean survival time, dose: 32.0 mg/kg/injection, schedule: Q01DX001 (ip), vehicle: saline 115 % of control and 117 % of control

CCCCCCCCCCCCCC[N+](C)(C)CC#CC[N+](C)(C)CCCCCCCCCCCCCC
inactive: [10] 104 % of control | [11] 89 % of control

O=C1C=CC(=O)c2c(O)ccc(O)c21
inactive: endpoint: mean survival time, dose: 1.0 mg/kg/injection, schedule: Q04DX003 (ip), vehicle: saline with Tween-80 91 % of control | endpoint: mean survival time, dose: 2.0 mg/kg/injection, schedule: Q04DX003 (ip), vehicle: saline with Tween-80 104 % of control | endpoint: mean survival time, dose: 4.0 mg/kg/injection, schedule: Q04DX003 (ip), vehicle: saline with Tween-80 104 % of control

CCSc1nc(N)c2ncn(C3OC(C)C(O)C(O)C3O)c2n1 (configuration not stated)
inactive: endpoint: median survival time, dose: 12.5 mg/kg/injection, schedule: Q01DX005 (ip), vehicle: saline with Tween-80 106 % of control | endpoint: median survival time, dose: 25.0 mg/kg/injection, schedule: Q01DX005 (ip), vehicle: saline with Tween-80 101 % of control | endpoint: median survival time, dose: 50.0 mg/kg/injection, schedule: Q01DX005 (ip), vehicle: saline with Tween-80 94 % of control | endpoint: median survival time, dose: 100.0 mg/kg/injection, schedule: Q01DX005 (ip), vehicle: saline with Tween-80 103 % of control | endpoint: median survival time, dose: 200.0 mg/kg/injection, schedule: Q01DX005 (ip), vehicle: saline with Tween-80 100 % of control

CN1CC(C(=O)NC(C)(C)C)CC(c2ccccc2)C1 (configuration not stated)
inactive: endpoint: mean survival time, dose: 6.25 mg/kg/injection, schedule: Q01DX001 (ip), vehicle: saline with Tween-80 102 % of control | endpoint: mean survival time, dose: 12.5 mg/kg/injection, schedule: Q01DX001 (ip), vehicle: saline with Tween-80 106 % of control | endpoint: mean survival time, dose: 25.0 mg/kg/injection, schedule: Q01DX001 (ip), vehicle: saline with Tween-80 100 % of control
